“And” between values parts separate entries of the source, which are not always exact repeats. Identical values can stand only once.
What was measured:
[1] = test system: Total P53, MDM2, P21, AKR1C3 proteins in H460 cells; assay: WB detection, presence and absence of Nutlin-3; assay type: cell-based, human; details: wild-type H460, 5 µM Nutlin-3, 24h, compared with the H460 wild-type DMSO group (Figures 29, 30)
Procedure: • 1) H460 and H460 P53 KO cell suspensions were added to a 24-well plate, with a cell density of 100000 /well and 995 µL of medium per well. • 2) The cells were cultured overnight in an incubator at 37°C, 5% CO2. • 3) Compound Treatment
After 24 hours of cell plating, according to the protocol, each cell line experiment was grouped as: H460 WT untreated group, H460 P53 KO # 1 untreated group, H460 P53 KO # 7 untreated group, H460 P53 KO # 8 untreated group, H460 P53 KO # 12 untreated group, H460 WT 0.1% DMSO treated group, H460 WT 5 µM Nutlin-3 treated group, H460 P53 KO # 1 5 µM Nutlin-3 treated group, H460 P53 KO # 7 5 µM Nutlin-3 treated group, H460 P53 KO # 8 5 µM Nutlin-3 treated group, H460 P53 KO # 12 5 µM Nutlin-3 treated group. […]
• 1) The cell plates were taken back, the medium supernatant was discarded, and the plates were gently rinsed with PBS. […] The cells were scraped off with a cell scraper, lysed on ice for 30 min, and centrifuged at 14000 rpm and 4°C for 10 min. • 2) Protein quantification was performed using the BCA method. […] Solutions A and B of the ECL luminescence solution (SuperSignal West Femto Maximum Sensitivity) were mixed and added to the membrane dried away from water. […]

[2] = test system: p53, Rad51, MDM2 and p21 proteins in HPAF-II cells; assay: WB detection of p53 pathway proteins in p53 mutant cells; assay type: cell-based; details: 60 nM AST, 8 µM Nutlin-3, 24 hours (Figure 23)
Procedure: • 1)HPAF-II cell suspension was added to a 24-well plate, with a cell density of 300000 /well and 995 µL of medium per well. • 2) The cells were cultured overnight in an incubator at 37°C, 5% CO2. • 3) Compound treatment. After 24 hours of cell plating, the cells were grouped and dosed according to different cells.
HPAF-II were grouped as: 1% DMSO treated group, 60nM AST treated group, 8 µM Nutlin-3 treated group, AST 60nM + Nutlin-3 8 µM treated group.
Monotherapy: After 24 hours of cell plating, each well was supplied with 5µL of test compounds at different concentrations: 1% DMSO, AST 1.5nM, Nutlin-3 1µM, AST 60nM and Nutlin-3 8µM, shaken gently to ensure even mixing, and then placed at 37°C, 5% CO2 in an incubator.
Combination therapy: After 24 hours of cell plating, each well was supplied with 5µL of 1µM Nutlin-3 and Nutlin-3 8µM respectively for pre-treatment four 2 hours. Then the corresponding cells were added with […] of 1.5nM AST and 60nM AST, shaken gently to ensure even mixing, and then placed at 37°C, 5% CO2 in an incubator.
4) After incubating the 24-well plates in a 37°C, 5% CO2 incubator for 24 hours, the cell protein lysate was collected for WB detection, and the WB detection results were shown in Figure 23. […]

liver cancer = assay: Phase II clinical trial of AST-3424 (CTR20191399); assay type: in vivo, human
From the text: The clinical trial registration number is CTR20191399.
• 1. Male or female, aged ≥18 years old. • 2. Histopathologically confirmed advanced HCC that cannot be controlled by surgical resection or local therapy. • 3. History of prior standard systemic therapy including, but not limited to, Sorafenib and/or Oxaliplatin-based systemic chemotherapy, Lenvatinib, Regorafenib and/or Nivolumab, who have experienced disease progression, toxicity intolerance, or refusal to continue treatment with these drugs. • 4. At least one measurable lesion meeting RECIST 1.1 criteria. A lesion with a history of prior radiation therapy shall not be regarded as the measurable lesion unless a definite radiological progression is observed after radiation therapy. • 5. […] Eastern Cooperative Oncology Group (ECOG) performance status score of 0 or 1. • 7. Expected survival time ≥ 12 weeks. • 8. With or without HBV or HCV infection. a. For subjects with HBV infection, HBV-DNA level shall be <2,000 IU/ml, and antiviral therapy with entecavir, tenofovir disoproxil fumarate, or tenofovir alafenamide fumarate shall be administered according to the national guidelines for the prevention and treatment of chronic hepatitis B. The therapy shall be maintained during the study and continued for 6 months after the last dose of the study drug. b. For subjects with HCV infection (in the presence of detectable HCV-RNA or anti-HCV antibodies), treatment may be conducted according to medical practice. • 9. Child-Pugh score ≤ 6 points. • 10. No history of hepatic encephalopathy. • 11. Prior to the initiation of the study drug, all toxicities from previous anticancer therapies (except alopecia, fatigue, or peripheral neuropathy) shall have returned to Grade 1 or baseline levels (NCI CTCAE Version 5). • 12. Subject's laboratory tests shall meet the following criteria. During 14 days before screening laboratory tests, no correction of indicators by blood transfusion, hematopoietic growth factor infusion or albumin infusion is allowed to meet the inclusion criteria: a. Hemoglobin ≥ 90 g/L; b. Platelet count ≥ 80 × 10^9/L; c. Absolute neutrophil count (ANC) ≥ 1.5 × 10^9/L; d. Serum total bilirubin ≤ 3 mg/dL; E. ALT and AST ≤ 5.0 × ULN; f. International normalized ratio (INR) ≤ 2.3 or prothrombin time prolongation ≤ 6 seconds; g. Albumin ≥ 29 g/L; h. Creatinine clearance > 50 mL/min as measured according to the Cockcroft-Gault equation. • 13. No history of alcohol, drug or substance abuse within the past year. • 14. Fertile female subjects shall be in non-lactating and have a negative pregnancy test result within 5 days prior to the initiation of treatment (the subject with a positive urine pregnancy test result needs to be reconfirmed by a serum pregnancy test). • 15. Fertile female and male subjects shall agree to use effective contraceptive measures (e.g. surgical sterilization or condom or diaphragm contraception combined with spermicidal gel or intrauterine contraceptive device [IUD], etc.) with their partners from the start of study participation until 6 months after the last dose of the study drug. • 16. Voluntary participation in this study, fully understanding of the relevant risks, good compliance, and signing the informed consent. Subjects may also sign an informed consent form for future biomedical research (FBR). However, the subjects who would not participate in FBR are still allowed participate in the main trial.
• 1. Untreated active central nervous system (CNS) metastases or leptomeningeal disease. Subjects with CNS metastases that have been adequately treated and confirmed to be stable for at least 4 weeks during screening by clinical tests and brain imaging (MRI or CT) are allowed to participate in the study. • 2. […]

[3] = 8 subjects who completed efficacy evaluation, liver cancer, 6 mg/m^2 day 1 and day 8 of 21-day cycle, as of July 21, 2023
[4] = subgroup of 4 cases negative (-) for p53 gene mutation or defect, liver cancer, 6 mg/m^2 day 1 and day 8 of 21-day cycle, as of July 21, 2023

`COc1ccc(C2=NC(c3ccc(Cl)cc3)C(c3ccc(Cl)cc3)N2C(=O)N2CCNC(=O)C2)c(OC(C)C)c1` (racemic) [Nutlin-3] was tested, and the “expressions of MDM2, P53, P21 and AKR1C3 proteins (WB)” value [1] was “all upregulated”.
`O=[N+]([O-])c1ccc(C(OP(=O)(N2CC2)N2CC2)C(F)(F)F)cc1Oc1ccc(-c2ccc(F)cc2)c(F)c1` (stereo not shown) [AST] was tested, and the “expression of RAD51 protein (WB)” value [2] was “promoted the expression of RAD51 protein” and the “expression of p53, its downstream proteins p21 and MDM2 (WB)” value [2] was “no effect”.
`C[C@H](OP(=O)(N1CC1)N1CC1)c1ccc([N+](=O)[O-])c(Oc2cccc(C(=O)N(C)C)c2)c1` [AST-3424] was tested, and the “overall DCR” value (liver cancer; 8 evaluated liver cancer subjects, 6 mg/m^2 day 1 and day 8 of 21-day cycle, as of July 21, 2023) was 75%, the “subjects achieved PD” value (liver cancer; [3]) was 25% and the “subjects achieved PR” value (liver cancer; [3]) was 12.5%. The “subjects achieved SD” value (liver cancer; [3]) was 62.5%, the ORR (liver cancer; overall, 8 evaluated liver cancer subjects, 6 mg/m^2 day 1 and day 8 of 21-day cycle, as of July 21, 2023) was 12.5% and the Efficacy evaluation (liver cancer; per case, 3 subjects with positive P53 mutation, unclear in whether it affects protein expression (VUS) (Table 10), as of March 11, 2024) was “SD, lesion increase”. For the same compound, the PFS (liver cancer; per case, 8 P53 mutation-positive (MUT) subjects (Table 8), 6 mg/m^2 day 1 and day 8 of 21-day cycle, as of March 11, 2024) was 1.4 months and 1.6 months and 1.5 months and 1.2 months, the DCR (liver cancer; [4]) was 75% and the ORR (liver cancer; [4]) was 25%. It also gave a DCR (liver cancer; subgroup of 4 cases positive (+) for p53 gene mutation or defect, liver cancer, 6 mg/m^2 day 1 and day 8 of 21-day cycle, as of July 21, 2023) of 75%.

Reference: patent publication EP4755396A1, “TREATMENT OF P53 GENE MUTATION OR DEFECT NEGATIVE CANCER AND TUMOR PATIENTS” (Ascentawits Pharmaceuticals, Ltd., priority 2023, dated 2025)
